Measurements taken from PubChem BioAssay (NCI).
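Assay format: 96-well plates, 48-hour exposure. TGI marks complete inhibition of growth.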

Tests used:
Assay in all cases: NCI-60 cell line screen, 48 h
SK-MEL-5 melanoma = system: SK-MEL-5 melanoma
NCI-H522 lung = system: NCI-H522 lung
UACC-257 melanoma = system: UACC-257 melanoma
MDA-N = system: MDA-N
HCC-2998 colon = system: HCC-2998 colon
NCI/ADR-RES ovarian = system: NCI/ADR-RES ovarian
NCI-H226 lung = system: NCI-H226 lung
TK-10 renal = system: TK-10 renal
SF-539 CNS = system: SF-539 CNS
RPMI-8226 leukemia = system: RPMI-8226 leukemia

With `CC1(C)N=C(C(N)=O)c2ncn(CCCO)c2N1` the TGI (SK-MEL-5 melanoma) was > 100 µM, the TGI (NCI-H522 lung) was > 100 µM and the TGI (UACC-257 melanoma) was > 100 µM. For the same compound, the TGI (MDA-N) was > 100 µM, the TGI (HCC-2998 colon) was > 100 µM and the TGI (NCI/ADR-RES ovarian) was > 100 µM. The TGI (NCI-H226 lung) was > 100 µM, the TGI (TK-10 renal) was > 100 µM and the TGI (SF-539 CNS) was > 100 µM. The TGI (RPMI-8226 leukemia) was > 100 µM.

In the case of `CCCn1c(CN(Cc2nc3ccccc3n2CCC)Cc2nc3ccccc3n2CCC)nc2ccccc21`, the TGI (SK-MEL-5 melanoma) is reported as 18.1 µM, the TGI (NCI-H522 lung) is reported as > 59.9 µM and the TGI (UACC-257 melanoma) is reported as > 42.5 µM. The TGI (MDA-N) was 25.1 µM, the TGI (HCC-2998 colon) was 30 µM and the TGI (NCI/ADR-RES ovarian) was > 100 µM. The TGI (NCI-H226 lung) was 27.3 µM, the TGI (TK-10 renal) was > 100 µM and the TGI (SF-539 CNS) was > 50.9 µM. It also gave a TGI (RPMI-8226 leukemia) of 5.36 µM.

Work on `CCCNC(=O)CCC(C)[C@H]1CCC2C3C(C[C@H](OC(C)=O)[C@@]21C)[C@@]1(C)CCC2(C[C@H]1C[C@H]3OC(C)=O)OOC1(CCC(C)CC1)OO2` (stereo not given in full) yielded a TGI (SK-MEL-5 melanoma) of 28.6 µM, a TGI (NCI-H522 lung) of 33.3 µM and a TGI (UACC-257 melanoma) of 90.9 µM. The TGI (MDA-N) was 28.6 µM, the TGI (HCC-2998 colon) was 79.1 µM and the TGI (NCI/ADR-RES ovarian) was 40.5 µM. The TGI (NCI-H226 lung) was > 100 µM, the TGI (TK-10 renal) was 58.8 µM and the TGI (SF-539 CNS) was 33.8 µM. The TGI (RPMI-8226 leukemia) was 19.4 µM.

For `CN(C)Cc1cc(C(=O)/C=C/c2ccc(O)cc2)cc(CN(C)C)c1O`, the TGI (SK-MEL-5 melanoma) was 38.5 µM, the TGI (NCI-H522 lung) was 75.6 µM and the TGI (UACC-257 melanoma) was > 100 µM. The TGI (MDA-N) was > 100 µM, the TGI (HCC-2998 colon) was > 100 µM and the TGI (NCI/ADR-RES ovarian) was > 100 µM. For the same compound, the TGI (NCI-H226 lung) was > 100 µM, the TGI (TK-10 renal) was > 100 µM and the TGI (SF-539 CNS) was > 100 µM. For the same compound, the TGI (RPMI-8226 leukemia) was 49.8 µM.

With `CN(C)c1nc(=NCc2ccccc2)ss1` the TGI (SK-MEL-5 melanoma) was > 10 µM, the TGI (NCI-H522 lung) was > 10 µM and the TGI (UACC-257 melanoma) was > 10 µM. For the same compound, the TGI (MDA-N) was > 10 µM, the TGI (HCC-2998 colon) was > 10 µM and the TGI (NCI/ADR-RES ovarian) was > 10 µM. For the same compound, the TGI (NCI-H226 lung) was > 10 µM, the TGI (TK-10 renal) was > 10 µM and the TGI (SF-539 CNS) was > 10 µM. For the same compound, the TGI (RPMI-8226 leukemia) was > 10 µM.

`O=C(NCCCN(CCCCN(CCCNC(=O)C(F)(F)F)Cc1ccccc1)Cc1ccccc1)C(F)(F)F` showed a TGI (SK-MEL-5 melanoma) of 14.9 µM, a TGI (NCI-H522 lung) of 22.3 µM and a TGI (UACC-257 melanoma) of 16.9 µM. For the same compound, the TGI (MDA-N) was 29.1 µM, the TGI (HCC-2998 colon) was 14.7 µM and the TGI (NCI/ADR-RES ovarian) was 30.1 µM. For the same compound, the TGI (NCI-H226 lung) was 34.4 µM, the TGI (TK-10 renal) was 53.5 µM and the TGI (SF-539 CNS) was 26.3 µM. The TGI (RPMI-8226 leukemia) was 40.5 µM.

For `C/C(CC1C2CCCC1C2)=N\NC(N)=O` (stereo not given), the TGI (SK-MEL-5 melanoma) was > 100 µM, the TGI (NCI-H522 lung) was > 100 µM and the TGI (UACC-257 melanoma) was > 100 µM. The TGI (MDA-N) was > 100 µM, the TGI (HCC-2998 colon) was > 100 µM and the TGI (NCI/ADR-RES ovarian) was > 100 µM. For the same compound, the TGI (NCI-H226 lung) was > 100 µM, the TGI (TK-10 renal) was > 100 µM and the TGI (SF-539 CNS) was > 100 µM. For the same compound, the TGI (RPMI-8226 leukemia) was > 100 µM.

In the case of `O=c1cc(N=P(c2ccccc2)(c2ccccc2)c2ccccc2)n(-c2ccccc2)c(=O)n1-c1ccccc1`, the TGI (SK-MEL-5 melanoma) is reported as 24.1 µM, the TGI (NCI-H522 lung) is reported as 37.3 µM and the TGI (UACC-257 melanoma) is reported as > 100 µM. For the same compound, the TGI (MDA-N) was 43.7 µM, the TGI (HCC-2998 colon) was 69.7 µM and the TGI (NCI/ADR-RES ovarian) was > 100 µM. For the same compound, the TGI (NCI-H226 lung) was 22.2 µM, the TGI (TK-10 renal) was > 100 µM and the TGI (SF-539 CNS) was 17.7 µM. It also gave a TGI (RPMI-8226 leukemia) of 33 µM.

Compound `CC(C)/C(Cl)=N\OC(=O)Nc1ccc(C#N)cc1` has a TGI (SK-MEL-5 melanoma) of 9.91 µM, a TGI (NCI-H522 lung) of 3.21 µM and a TGI (UACC-257 melanoma) of 25.3 µM. For the same compound, the TGI (MDA-N) was 17.3 µM, the TGI (HCC-2998 colon) was 29.9 µM and the TGI (NCI/ADR-RES ovarian) was 32.2 µM. The TGI (NCI-H226 lung) was 27.2 µM, the TGI (TK-10 renal) was 12.9 µM and the TGI (SF-539 CNS) was 29.4 µM. For the same compound, the TGI (RPMI-8226 leukemia) was 6.88 µM.
